# From ChEMBL document CHEMBL3112432, “Synthesis of 5α-cholestan-6-one derivatives and their inhibitory activities of NO production in activated microglia: discovery of a novel neuroinflammation inhibitor” (Bioorg Med Chem Lett, 2014)
# Assays:
# BV-2 = assay: Antiinflammatory activity in LPS-stimulated mouse BV2 cells assessed as inhibition of NO production after 24 hrs by Griess method; type: functional, cell-based
# [1] = Antiinflammatory activity in LPS-stimulated mouse BV2 cells assessed as inhibition of NO production at 40 uM after 24 hrs by Griess method relative to control; type: functional; details: BV-2, 24 h
# [2] = Cytotoxicity against mouse BV2 cells assessed as cell viability at 40 uM after 24 hrs by MTT assay relative to control; type: cell-based, BV-2; details: read-out: Activity
SMILES,inhibition (BV-2),inhibition at 40 µM [1],"viability at 24 h, 40 µM [2]"
COC(=O)CC[C@@H](C)[C@H]1CC[C@H]2[C@@H]3[C@H](O)C(=O)[C@H]4C[C@@H](O)CC[C@]4(C)[C@H]3CC[C@]12C,Dose-dependent effect,71.1%,96.3%
C[C@H]([C@H](O)CO)[C@H]1CC[C@H]2[C@@H]3CC(=O)[C@H]4C[C@H](O)[C@H](O)C[C@]4(C)[C@H]3CC[C@]12C,–,22.6%,94%
C=C[C@@H](C)[C@H]1CC[C@H]2[C@@H]3[C@H](O)C(=O)[C@H]4C[C@H](O)CC[C@]4(C)[C@H]3CC[C@]12C,–,69.6%,76.6%
COC(=O)CC[C@@H](C)[C@H]1CC[C@H]2[C@@H]3CC(=O)[C@H]4C[C@@H](Cl)CC[C@]4(C)[C@H]3CC[C@]12C,–,35.9%,79%
COC(=O)CC[C@@H](C)[C@H]1CC[C@H]2[C@@H]3CC(=O)[C@H]4C[C@H](O)[C@H](O)C[C@]4(C)[C@H]3CC[C@]12C,–,74.1%,81.1%
C=C[C@@H](C)[C@H]1CC[C@H]2[C@@H]3[C@H](O)C(=O)[C@H]4C[C@@H](O)CC[C@]4(C)[C@H]3CC[C@]12C,–,59.5%,81.8%
C=C[C@@H](C)[C@H]1CC[C@H]2[C@@H]3[C@H](F)C(=O)[C@H]4C[C@H](O)CC[C@]4(C)[C@H]3CC[C@]12C,–,44.5%,76.6%
COC(=O)CC[C@@H](C)[C@H]1CC[C@H]2[C@@H]3[C@H](F)C(=O)[C@H]4C[C@H](O)[C@@H](O)C[C@]4(C)[C@H]3CC[C@]12C,–,68.1%,50.8%
COC(=O)CC[C@@H](C)[C@H]1CC[C@H]2[C@@H]3CC(=O)[C@H]4C[C@H](O)[C@@H](F)C[C@]4(C)[C@H]3CC[C@]12C,–,46.1%,95.8%
COC(=O)CC[C@@H](C)[C@H]1CC[C@H]2[C@@H]3CC(=O)[C@H]4C[C@H](O)[C@@H](Br)C[C@]4(C)[C@H]3CC[C@]12C,–,42.7%,91.4%
C=C[C@@H](C)[C@H]1CC[C@H]2[C@@H]3[C@H](F)C(=O)[C@H]4C[C@H](O)[C@@H](F)C[C@]4(C)[C@H]3CC[C@]12C,–,63.8%,86.8%
COC(=O)CC[C@@H](C)[C@H]1CC[C@H]2[C@@H]3CC(=O)[C@H]4C[C@@H](Br)CC[C@]4(C)[C@H]3CC[C@]12C,–,41.5%,81.5%
COC(=O)CC[C@@H](C)[C@H]1CC[C@H]2[C@@H]3[C@H](F)C(=O)[C@H]4C[C@@H](F)CC[C@]4(C)[C@H]3CC[C@]12C,–,39.1%,92.2%
C=C[C@@H](C)[C@H]1CC[C@H]2[C@@H]3[C@H](O)C(=O)[C@H]4C[C@H](O)[C@@H](F)C[C@]4(C)[C@H]3CC[C@]12C,–,92.7%,55.9%
COC(=O)CC[C@@H](C)[C@H]1CC[C@H]2[C@@H]3[C@H](F)C(=O)[C@H]4C[C@@H]5O[C@@H]5C[C@]4(C)[C@H]3CC[C@]12C,–,32.6%,97.2%
C=C[C@@H](C)[C@H]1CC[C@H]2[C@@H]3[C@H](O)C(=O)[C@H]4C[C@@H](F)CC[C@]4(C)[C@H]3CC[C@]12C,–,43.2%,87%
COC(=O)CC[C@@H](C)[C@H]1CC[C@H]2[C@@H]3CC(=O)[C@H]4C[C@@H](F)CC[C@]4(C)[C@H]3CC[C@]12C,–,43.5%,84.1%
C=C[C@@H](C)[C@H]1CC[C@H]2[C@@H]3CC(=O)[C@H]4C[C@H](O)[C@H](O)C[C@]4(C)[C@H]3CC[C@]12C,–,65.7%,48.2%

SMILES,inhibition (BV-2),inhibition at 40 µM [1],"viability at 24 h, 40 µM [2]"
C[C@H]([C@H](O)CO)[C@H]1CC[C@H]2[C@@H]3CC(=O)[C@H]4C[C@H](O)CC[C@]4(C)[C@H]3CC[C@]12C,Dose-dependent effect,60.4%,95.9%
COC(=O)CC[C@@H](C)[C@H]1CC[C@H]2[C@@H]3CC(=O)[C@H]4C[C@@H]5O[C@@H]5C[C@]4(C)[C@H]3CC[C@]12C,–,48.6%,99.5%
C[C@H]([C@H](O)CO)[C@H]1CC[C@H]2[C@@H]3[C@H](F)C(=O)[C@H]4C[C@H](O)CC[C@]4(C)[C@H]3CC[C@]12C,Dose-dependent effect,68.1%,95.1%
C[C@]12CC[C@H](O)CC1=CC[C@@H]1[C@@H]2CC[C@]2(C)C(=O)CC[C@@H]12 [PRASTERONE],–,55.3%,99.1%
C[C@H]([C@H](O)CO)[C@H]1CC[C@H]2[C@@H]3[C@H](F)C(=O)[C@H]4C[C@@H](F)CC[C@]4(C)[C@H]3CC[C@]12C,–,35.9%,81.7%
COC(=O)CC[C@@H](C)[C@H]1CC[C@H]2[C@@H]3[C@H](F)C(=O)[C@H]4C[C@H](O)CC[C@]4(C)[C@H]3CC[C@]12C,–,47.2%,73.7%
COC(=O)CC[C@@H](C)[C@H]1CC[C@H]2[C@@H]3CC(=O)[C@H]4C[C@H](O)CC[C@]4(C)[C@H]3CC[C@]12C,–,39.4%,87.7%
COC(=O)CC[C@@H](C)[C@H]1CC[C@H]2[C@@H]3[C@H](F)C(=O)[C@H]4C[C@@H](O)CC[C@]4(C)[C@H]3CC[C@]12C,–,43.9%,23.1%
COC(=O)CC[C@@H](C)[C@H]1CC[C@H]2[C@@H]3[C@H](O)C(=O)[C@H]4C[C@@H](F)CC[C@]4(C)[C@H]3CC[C@]12C,Dose-dependent effect,64.2%,92.4%
C[C@H]([C@H](O)CO)[C@H]1CC[C@H]2[C@@H]3[C@H](O)C(=O)[C@H]4C[C@@H](F)CC[C@]4(C)[C@H]3CC[C@]12C,–,91.9%,78.6%
COC(=O)CC[C@@H](C)[C@H]1CC[C@H]2[C@@H]3[C@H](F)C(=O)[C@H]4C[C@H](O)[C@H](O)C[C@]4(C)[C@H]3CC[C@]12C,–,72.4%,69.9%
C=C[C@@H](C)[C@H]1CC[C@H]2[C@@H]3CC(=O)[C@H]4C[C@H](O)CC[C@]4(C)[C@H]3CC[C@]12C,–,24.5%,96.4%
C[C@H]([C@H](O)CO)[C@H]1CC[C@H]2[C@@H]3[C@H](O)C(=O)[C@H]4C[C@H](O)CC[C@]4(C)[C@H]3CC[C@]12C,–,47.1%,95.7%
COC(=O)CC[C@@H](C)[C@H]1CC[C@H]2[C@@H]3[C@H](F)C(=O)[C@H]4C[C@H](O)[C@@H](F)C[C@]4(C)[C@H]3CC[C@]12C,Dose-dependent effect,70%,96.2%
COC(=O)CC[C@@H](C)[C@H]1CC[C@H]2[C@@H]3CC(=O)[C@H]4CC(=O)CC[C@]4(C)[C@H]3CC[C@]12C,–,48.2%,78%
COC(=O)CC[C@@H](C)[C@H]1CC[C@H]2[C@@H]3CC(=O)[C@H]4C[C@H](O)[C@@H](O)C[C@]4(C)[C@H]3CC[C@]12C,–,44.9%,79.5%
COC(=O)CC[C@@H](C)[C@H]1CC[C@H]2[C@@H]3[C@H](O)C(=O)[C@H]4C[C@H](O)[C@@H](F)C[C@]4(C)[C@H]3CC[C@]12C,–,75.1%,80.5%
COC(=O)CC[C@@H](C)[C@H]1CC[C@H]2[C@@H]3CC(=O)[C@H]4C[C@@H](O)CC[C@]4(C)[C@H]3CC[C@]12C,–,18.1%,27.8%
